Measurements as given in patent US8637510B2, “Morpholinothiazoles as alpha 7 positive allosteric modulators” (Janssen Pharmaceutica NV, priority 2009, dated 2014).

Target: T1, human alpha 7-wt nAChR (Homo sapiens, UniProt P36544)
T1 construct: expressed in transfected cells
Test: Ca2+ flux imaging (FDSS) (Protocol B)
Format: cell-based
Details: for Emax: efficacy of 100 μM choline defined as 100% in the absence of a PAM, read-out: a7-PAM-G_[33]_Eff_Curve_FI % Efficacy; for EC50: potentiation of 100 μM choline, compounds 0.01 μM to 30 μM, read-out: a7-PAM-G_[33]_pEC50 pEC50 (converted)
In short: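 PAM activity was measured as FDSS calcium fluorescence in α7-wt nAChR cells loaded with 2 μM Fluo-4AM, with compounds at 0.01–30 μM added alongside or 10 min ahead of sub-maximal 100 μM choline. Peak responses were normalised to choline-only efficacy, and EC50 was taken at half-maximal effect.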

T1 sequence (P36544 23-502): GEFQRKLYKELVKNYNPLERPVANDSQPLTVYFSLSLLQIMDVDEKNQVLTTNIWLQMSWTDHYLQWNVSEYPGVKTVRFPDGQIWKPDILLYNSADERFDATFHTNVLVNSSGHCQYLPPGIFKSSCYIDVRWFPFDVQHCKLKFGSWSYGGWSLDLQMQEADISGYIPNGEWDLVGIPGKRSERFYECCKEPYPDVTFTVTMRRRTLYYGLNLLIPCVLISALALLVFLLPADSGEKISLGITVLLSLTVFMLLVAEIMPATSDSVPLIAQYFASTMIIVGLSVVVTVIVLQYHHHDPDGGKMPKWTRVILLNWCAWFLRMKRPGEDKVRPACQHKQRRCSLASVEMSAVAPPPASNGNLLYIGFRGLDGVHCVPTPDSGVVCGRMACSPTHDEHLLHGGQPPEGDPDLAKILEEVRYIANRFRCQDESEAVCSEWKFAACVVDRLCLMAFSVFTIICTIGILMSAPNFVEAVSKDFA

Row | SMILES | Emax | EC50
1 | Cc1cc(-c2sc(N3C[C@@H](C)O[C@@H](C)C3)nc2CNC(=O)c2cnccn2)cc(C)n1 [Compound 138, N-[[2-[(2R,6S)-2,6-dimethyl-4-morpholinyl]-5-(2,6-dimethyl-4-pyridinyl)-4-thiazolyl]methyl]-2-pyrazinecarboxamide] | 837% | 4680 nM
2 | Cc1cc(-c2sc(N3C[C@@H](C)O[C@@H](C)C3)nc2CNC(=O)c2cc(C)n(C(C)(C)C)n2)cc(C)n1 [Compound 139, 1-(1,1-dimethylethyl)-N-[[2-[(2R,6S)-2,6-dimethyl-4-morpholinyl]-5-(2,6-dimethyl-4-pyridinyl)-4-thiazolyl]methyl]-5-methyl-1H-pyrazole-3-carboxamide] | 699% | 617 nM
3 | COc1cccc(C(=O)NCc2nc(N3C[C@@H](C)O[C@@H](C)C3)sc2-c2cc(C)nc(C)c2)n1 [Compound 140, N-[[2-[(2R,6S)-2,6-dimethyl-4-morpholinyl]-5-(2,6-dimethyl-4-pyridinyl)-4-thiazolyl]methyl]-6-methoxy-2-pyridinecarboxamide] | 451% | 1200 nM
4 | Cc1cc(-c2sc(N3C[C@@H](C)O[C@@H](C)C3)nc2CNC(=O)c2cc(C(C)(C)C)on2)cc(C)n1 [Compound 143, 5-(1,1-dimethylethyl)-N-[[2-[(2R,6S)-2,6-dimethyl-4-morpholinyl]-5-(2,6-dimethyl-4-pyridinyl)-4-thiazolyl]methyl]-3-isoxazolecarboxamide] |  | 891 nM
5 | Cc1cc(-c2sc(N3C[C@@H](C)O[C@@H](C)C3)nc2CNC(=O)CCCC(F)(F)F)cc(C)n1 [Compound 145, N-[[2-[(2R,6S)-2,6-dimethyl-4-morpholinyl]-5-(2,6-dimethyl-4-pyridinyl)-4-thiazolyl]methyl]-5,5,5-trifluoro-pentanamide] |  | 148 nM
6 | Cc1cc(-c2sc(N3C[C@@H](C)O[C@@H](C)C3)nc2CNC(=O)c2ccoc2C)cc(C)n1 [Compound 151, N-[[2-[(2R,6S)-2,6-dimethyl-4-morpholinyl]-5-(2,6-dimethyl-4-pyridinyl)-4-thiazolyl]methyl]-2-methyl-3-furancarboxamide] |  | 871 nM
7 | Cc1cc(-c2sc(N3C[C@@H](C)O[C@@H](C)C3)nc2CNC(=O)c2scnc2C)cc(C)n1 [Compound 153, N-[[2-[(2R,6S)-2,6-dimethyl-4-morpholinyl]-5-(2,6-dimethyl-4-pyridinyl)-4-thiazolyl]methyl]-4-methyl-5-thiazolecarboxamide] |  | 2750 nM
8 | Cc1cc(-c2sc(N3C[C@@H](C)O[C@@H](C)C3)nc2CNC(=O)c2snnc2C)cc(C)n1 [Compound 155, N-[[2-[(2R,6S)-2,6-dimethyl-4-morpholinyl]-5-(2,6-dimethyl-4-pyridinyl)-4-thiazolyl]methyl]-4-methyl-1,2,3-thiadiazole-5-carboxamide] |  | 75.9 nM
9 | COc1nc(C)c(C(=O)NCc2nc(N3C[C@@H](C)O[C@@H](C)C3)sc2-c2cc(C)nc(C)c2)s1 [Compound 158, N-[[2-[(2R,6S)-2,6-dimethyl-4-morpholinyl]-5-(2,6-dimethyl-4-pyridinyl)-4-thiazolyl]methyl]-2-methoxy-4-methyl-5-thiazolecarboxamide] | 951% | 1580 nM
10 | Cc1cc(-c2sc(N3C[C@@H](C)O[C@@H](C)C3)nc2CNC(=O)c2cc(C)sc2C)cc(C)n1 [Compound 162, N-[[2-[(2R,6S)-2,6-dimethyl-4-morpholinyl]-5-(2,6-dimethyl-4-pyridinyl)-4-thiazolyl]methyl]-2,5-dimethyl-3-thiophenecarboxamide] | 842% | 813 nM
11 | Cc1cc(-c2sc(N3C[C@@H](C)O[C@@H](C)C3)nc2CNC(=O)c2ccc(C(F)(F)F)nc2C)cc(C)n1 [Compound 165, N-[[2-[(2R,6S)-2,6-dimethyl-4-morpholinyl]-5-(2,6-dimethyl-4-pyridinyl)-4-thiazolyl]methyl]-2-methyl-6-(trifluoromethyl)-3-pyridinecarboxamide] |  | 49 nM
12 | Cc1cc(CC(=O)NCc2nc(N3C[C@@H](C)O[C@@H](C)C3)sc2-c2cc(C)nc(C)c2)on1 [Compound 167, N-[[2-[(2R,6S)-2,6-dimethyl-4-morpholinyl]-5-(2,6-dimethyl-4-pyridinyl)-4-thiazolyl]methyl]-3-methyl-5-isoxazoleacetamide] |  | 1230 nM
13 | Cc1cc(-c2sc(N3C[C@@H](C)O[C@@H](C)C3)nc2CNC(=O)CC#N)cc(C)n1 [Compound 170, 2-cyano-N-[[2-[(2R,6S)-2,6-dimethyl-4-morpholinyl]-5-(2,6-dimethyl-4-pyridinyl)-4-thiazolyl]methyl]-acetamide] | 499% | 3090 nM
14 | Cc1cc(-c2sc(N3C[C@@H](C)O[C@@H](C)C3)nc2CNC(=O)C2(O)CC2)cc(C)n1 [Compound 176, N-[[2-[(2R,6S)-2,6-dimethyl-4-morpholinyl]-5-(2,6-dimethyl-4-pyridinyl)-4-thiazolyl]methyl]-1-hydroxy-cyclopropanecarboxamide] | 149% | 

Second part, the molecule after the results:

Row | Emax | EC50 | SMILES
15 | 764% | 692 nM | Cc1cc(-c2sc(N3C[C@@H](C)O[C@@H](C)C3)nc2CNC(=O)c2ccoc2)cc(C)n1 [Compound 141, N-[[2-[(2R,6S)-2,6-dimethyl-4-morpholinyl]-5-(2,6-dimethyl-4-pyridinyl)-4-thiazolyl]methyl]-3-furancarboxamide]
16 | 669% |  | Cc1cc(-c2sc(N3C[C@@H](C)O[C@@H](C)C3)nc2CNC(=O)c2ccn(C)n2)cc(C)n1 [Compound 142, N-[[2-[(2R,6S)-2,6-dimethyl-4-morpholinyl]-5-(2,6-dimethyl-4-pyridinyl)-4-thiazolyl]methyl]-1-methyl-1H-pyrazole-3-carboxamide]
17 |  | 6920 nM | Cc1cc(-c2sc(N3C[C@@H](C)O[C@@H](C)C3)nc2CNC(=O)c2ocnc2C)cc(C)n1 [Compound 152, N-[[2-[(2R,6S)-2,6-dimethyl-4-morpholinyl]-5-(2,6-dimethyl-4-pyridinyl)-4-thiazolyl]methyl]-4-methyl-5-oxazolecarboxamide]
18 | 671% |  | Cc1cc(-c2sc(N3C[C@@H](C)O[C@@H](C)C3)nc2CNC(=O)c2cn(C)nc2C)cc(C)n1 [Compound 169, N-[[2-[(2R,6S)-2,6-dimethyl-4-morpholinyl]-5-(2,6-dimethyl-4-pyridinyl)-4-thiazolyl]methyl]-1,3-dimethyl-1H-pyrazole-4-carboxamide]
19 | 425% | 776 nM | Cc1cc(-c2sc(N3C[C@@H](C)O[C@@H](C)C3)nc2CNC(=O)c2oc(C)cc2C)cc(C)n1 [Compound 173, N-[[2-[(2R,6S)-2,6-dimethyl-4-morpholinyl]-5-(2,6-dimethyl-4-pyridinyl)-4-thiazolyl]methyl]-3,5-dimethyl-2-furancarboxamide]
20 | 26% |  | Cc1cc(-c2sc(N3C[C@@H](C)O[C@@H](C)C3)nc2CNC(=O)C(F)(F)F)cc(C)n1 [Compound 177, N-[[2-[(2R,6S)-2,6-dimethyl-4-morpholinyl]-5-(2,6-dimethyl-4-pyridinyl)-4-thiazolyl]methyl]-2,2,2-trifluoro-acetamide]
21 | 991% | 1910 nM | Cc1cc(-c2sc(N3CCOC(C)(C)C3)nc2CNC(=O)c2cc(C)on2)cc(C)n1 [Compound 181, N-[[2-(2,2-dimethyl-4-morpholinyl)-5-(2,6-dimethyl-4-pyridinyl)-4-thiazolyl]methyl]-5-methyl-3-isoxazolecarboxamide]
